Measurements taken from patent US11534457B2, “Use of dextran sulfate” (priority 2017, dated 2022).

System: severe traumatic brain injury (sTBI)
Test: sTBI in rats, brain gene expression arrays and pathway analysis (Example 9)
Type: in vivo, Male Wistar rats
Design: key to z score, canonical pathway Dendritic Cell Maturation / z score, canonical pathway Adrenomedullin Signaling pathway / z score, canonical pathway Endothelin-1 Signaling / effect on canonical pathway Adrenomedullin Signaling pathway / effect on canonical pathway Endothelin-1 Signaling / effect on canonical pathway Dendritic Cell Maturation / Ingenuity canonical pathway Adrenomedullin signaling pathway, z score / Ingenuity canonical pathway FLT3 Signaling in Hematopoietic Progenitor Cells, z score / Ingenuity canonical pathway Opioid Signaling Pathway, z score / Ingenuity canonical pathway VDR/RXR Activation, z score / Ingenuity canonical pathway Neuropathic Pain Signaling In Dorsal Horn Neurons, z score / Ingenuity canonical pathway STAT3 Pathway, z score / Ingenuity canonical pathway IL-1 Signaling, z score / Ingenuity canonical pathway IL-6 Signaling, z score / Ingenuity canonical pathway NF-κB Signaling, z score / Ingenuity canonical pathway Role of NFAT in Cardiac Hypertrophy, z score / Ingenuity canonical pathway PPARα/RXRα Activation, z score: *: ambiguous effect
Description: The experimental protocol used in this study was approved by the Ethical Committee of the Catholic University of Rome, according to international standards and guidelines for animal care. Male Wistar rats of 300-350 g body weight were fed with standard laboratory diet and water ad libitum in a controlled environment. As the anesthetic mixture, the animals received 35 mg/kg b.w. ketamine and 0.25 mg/kg body weight midazolam by i.p. injection. Severe traumatic brain injury (sTBI) was induced by dropping a 450 g weight from 2 m height on to the rat head that had been protected by a metal disk previously fixed on the skull, according to the “weight drop” impact acceleration model (Marmarou et al., A new model of diffuse brain injury in rats. Part I: Pathophysiology and biomechanics. J Neurosurg. 1994; 80: 291-300). […] At the end of each period of treatment, rats were anesthetized again and then immediately sacrificed.
LMW-DS (Tikomed AB) was provided at a stock concentration of 20 mg/ml and was kept in a temperature-monitored refrigerator at 4° C. LMW-DS aliquots were diluted to the appropriate dosing concentration in sterile saline prior to delivery of a single subcutaneous injection.
Three doses of LMW-DS were administered subcutaneously 30 minutes post-TBI. The animals were sacrificed at 2 days post-TBI. The animals were divided into the following subgroups:
Three doses of LMW-DS were administered subcutaneously 30 minutes post-TBI. The animals were sacrificed at 7 days post-TBI. The animals were divided into the following subgroups:
An in vivo craniectomy was performed on all animals during anesthesia. After carefully removing the rat's skull, the brain was exposed and removed with a surgical spatula and quickly dropped in RNALater and preserved at 4° C. for further processing.
RNA extraction and array processing was carried out by SourceBioscience. The arrays used were the Agilent Rat expression arrays.
Statistical analysis was carried out using the Metaboanalyst software package. Gene expression changes of 10% with a p<0.05 were regarded as significant.
Pathway analysis of the differentially regulated genes was carried out using the Ingenuity pathway analysis package. The analysis was performed with special reference to pathways and molecular processes and diseases associated with neurodegenerative disease, including dementia, Alzheimer's disease, ALS, TBI and stroke, and with scarring and fibrosis, including glaucoma and normal pressure hydrocephalus (NPH) after subarachnoid haemorrhage.

[1] = 3 repeated doses of 15 mg/kg, 7 days
[2] = 2 days after TBI, TBI + 1 mg/kg LMW-DS
[3] = 2 days after TBI, TBI + 1 mg/kg LMW-DS, relative to control

low molecular weight dextran sulfate [LMW-DS]
genes with altered TBI-specific expression (1 mg/kg s.c. 30 min after injury, 2 days): 372 genes | genes with altered TBI-specific expression (1 mg/kg s.c. 30 min after injury, 7 days): 3602 genes | TBI-deregulated genes remaining deregulated relative to healthy controls (of 221) (1 mg/kg, 2 days): 22 genes | TBI-deregulated genes remaining deregulated, percent (1 mg/kg, 2 days): 10% | genes differing from healthy controls (1 mg/kg, 2 days): 209 genes | TBI-deregulated genes remaining deregulated relative to healthy controls (of 2741) (1 mg/kg, 7 days): 124 genes | TBI-deregulated genes remaining deregulated, percent (1 mg/kg, 7 days): 4.5% | genes differing from healthy controls (1 mg/kg, 7 days): 282 genes | genes with altered TBI-specific expression (5 mg/kg s.c. 30 min after TBI, 2 days): 702 genes | genes with altered TBI-specific expression (5 mg/kg s.c. 30 min after TBI, 7 days): 3852 genes | TBI-deregulated genes remaining deregulated relative to healthy controls (of 221) (5 mg/kg, 2 days): 51 genes | TBI-deregulated genes remaining deregulated, percent (5 mg/kg, 2 days): 23% | genes differing from healthy controls (5 mg/kg, 2 days): 258 genes | TBI-deregulated genes remaining deregulated relative to healthy controls (of 2741) (5 mg/kg, 7 days): 169 genes | TBI-deregulated genes remaining deregulated, percent (5 mg/kg, 7 days): 6.1% | genes differing from healthy controls (5 mg/kg, 7 days): 398 genes | genes with altered TBI-specific expression (15 mg/kg s.c. 30 min after TBI, 2 days): 247 genes | genes with altered TBI-specific expression (15 mg/kg s.c. 30 min after TBI, 7 days): 3901 genes | TBI-deregulated genes remaining deregulated relative to healthy controls (of 221) (15 mg/kg, 2 days): 19 genes | TBI-deregulated genes remaining deregulated, percent (15 mg/kg, 2 days): 8.5% | genes differing from healthy controls (15 mg/kg, 2 days): 47 genes | TBI-deregulated genes remaining deregulated relative to healthy controls (of 2741) (15 mg/kg, 7 days): 85 genes | TBI-deregulated genes remaining deregulated, percent (15 mg/kg, 7 days): 3.1% | genes differing from healthy controls (15 mg/kg, 7 days): 158 genes | TBI-deregulated genes remaining deregulated relative to healthy controls (of 2741) [1]: 116 genes | TBI-deregulated genes remaining deregulated, percent [1]: 4.25% | genes differing from healthy controls [1]: 234 genes | effect on canonical pathway Adrenomedullin Signaling pathway [2]: * | effect on canonical pathway Dendritic Cell Maturation [2]: * | effect on canonical pathway Endothelin-1 Signaling [2]: * | effect on canonical pathway IL-1 Signaling [2]: Inhibited | effect on canonical pathway Osteoarthritis Pathway [2]: Inhibited | effect on canonical pathway Role of NFAT in Regulation of the Immune Response [2]: Activated | z score, Abdominal cancer [2]: −1.538 | z score, Abdominal carcinoma [2]: −1.715 | z score, Abdominal neoplasm [2]: −0.154 | z score, Activation of blood cells [2]: 0.086 | z score, Activation of cells [2]: 0.836 | z score, Activation of leukocytes [2]: 0.086 | z score, Activation of lymphocytes [2]: −1.158 | z score, Adhesion of tumor cell lines [2]: 2.074 | z score, Apoptosis [2]: −0.337 | z score, Apoptosis of muscle cells [2]: 0.041 | z score, Behavior [2]: 1.334 | z score, Binding of tumor cell lines [2]: 2.397 | z score, Carcinoma [2]: −0.127 | z score, Cell death [2]: −0.793 | z score, Cell death of blood cells [2]: 1.082 | z score, Cell death of immune cells [2]: 1.001 | z score, Cell movement [2]: 1.948 | z score, Cell movement of muscle cells [2]: −0.26 | z score, Cell movement of vascular smooth muscle cells [2]: −0.588 | z score, Cell proliferation of T lymphocytes [2]: −1.097 | z score, Cellular homeostasis [2]: 0.19 | z score, Concentration of prostaglandin [2]: −0.911 | z score, Development of connective tissue cells [2]: −0.332 | z score, Differentiation of bone cells [2]: −0.341 | z score, Differentiation of connective tissue cells [2]: 0.73 | z score, Differentiation of hematopoietic progenitor cells [2]: 0.487 | z score, Differentiation of osteoclasts [2]: −0.223 | z score, Digestive organ tumor [2]: −0.604 | z score, Experimentally-induced arthritis [2]: −0.816 | z score, Extracranial solid tumor [2]: 0.056 | z score, Genital tumor [2]: 0.13 | z score, Incidence of tumor [2]: −1.131 | z score, Inflammation of absolute anatomical region [2]: −1.359 | z score, Inflammation of body cavity [2]: −1.757 | z score, Inflammation of joint [2]: −0.053 | z score, Inflammation of organ [2]: −1.295 | z score, Inflammatory response [2]: 1.159 | z score, Interaction of mononuclear leukocytes [2]: 1.626 | z score, Leukocyte migration [2]: 1.296 | z score, Leukopoiesis [2]: 1.185 | z score, Locomotion [2]: −0.039 | z score, Lymphopoiesis [2]: 0.583 | z score, Malignant solid tumor [2]: −0.562 | z score, Migration of cells [2]: 2.093 | z score, Necrosis [2]: −0.361 | z score, Non-hematologic malignant neoplasm [2]: −0.243 | z score, Pelvic tumor [2]: −0.651 | z score, Proliferation of blood cells [2]: −1.083 | z score, Proliferation of lymphatic system cells [2]: −1.112 | z score, Proliferation of lymphocytes [2]: −0.852 | z score, Quantity of blood cells [2]: −1.479 | z score, Quantity of bone [2]: −1.985 | z score, Quantity of cells [2]: −0.765 | z score, Quantity of connective tissue cells [2]: 0.637 | z score, Quantity of leukocytes [2]: −1.163 | z score, Quantity of lymphatic system cells [2]: −0.701 | z score, Quantity of phagocytes [2]: −2.061 | z score, Rheumatic Disease [2]: −0.053 | z score, Size of body [2]: −4.771 | z score, Solid tumor [2]: −0.186 | z score, Survival of organism [2]: −0.095 | z score, Synthesis of hormone [2]: 0.977 | z score, Thrombus [2]: 1 | z score, Transcription of RNA [2]: −2.488 | z score, Transport of molecule [2]: 2.421 | z score, canonical pathway Adrenomedullin Signaling pathway [3]: * | z score, canonical pathway Dendritic Cell Maturation [3]: * | z score, canonical pathway Endothelin-1 Signaling [3]: * | z score, canonical pathway IL-1 Signaling [3]: −1 | z score, canonical pathway Osteoarthritis Pathway [3]: −1.342 | z score, canonical pathway Role of NFAT in Regulation of the Immune Response [3]: 0.378
